ChEMBL document CHEMBL1201862, “PubChem BioAssay data set” (2004)
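Tested at 5 concentrations; 48 h exposure; 96-well plates; endpoints linearly interpolated, else capped at highest concentration. GI50 is the concentration that inhibits growth by half.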 Calls of active or inactive are those of the source. Rule as the data show it: active = GI50 up to about 1.1 µM and inactive = higher.

Assays:
Assay in all cases: inhibition of tumour cell growth, NCI panel, 48 h
SK-OV-3 = test system: SK-OV-3
T47D = test system: T47D
HCT-116 = test system: HCT-116
MDA-MB-231 = test system: MDA-MB-231
OVCAR-5 = test system: OVCAR-5
EKVX = test system: EKVX
SNB-75 = test system: SNB-75
LOX IMVI = test system: LOX IMVI
RPMI-8226 = test system: RPMI-8226
OVCAR-3 = test system: OVCAR-3
SF-295 = test system: SF-295
KM12 = test system: KM12
MDA-MB-435 = test system: MDA-MB-435
SR = test system: SR
IGROV-1 = test system: IGROV-1
CCRF-CEM = test system: CCRF-CEM
MCF7 = test system: MCF7
SF-539 = test system: SF-539
Hs-578T = test system: Hs-578T
UACC-62 = test system: UACC-62
A549 = test system: A549
COLO 205 = test system: COLO 205
NCI/ADR-RES = test system: NCI/ADR-RES
OVCAR-8 = test system: OVCAR-8
HCT-15 = test system: HCT-15
CAKI-1 = test system: CAKI-1
BT-549 = test system: BT-549
UO-31 = test system: UO-31
MDA-N = test system: MDA-N
SK-MEL-5 = test system: SK-MEL-5
SNB-19 = test system: SNB-19
HOP-62 = test system: HOP-62
DU-145 = test system: DU-145
NCI-H23 = test system: NCI-H23
PC-3 = test system: PC-3
NCI-H522 = test system: NCI-H522
K562 = test system: K562
SF-268 = test system: SF-268
U-251 = test system: U-251
SW-620 = test system: SW-620
M14 = test system: M14
A498 = test system: A498
SN12C = test system: SN12C
SK-MEL-28 = test system: SK-MEL-28
TK-10 = test system: TK-10
MOLT-4 = test system: MOLT-4
HT-29 = test system: HT-29
HL-60 = test system: HL-60
UACC-257 = test system: UACC-257
HCC 2998 = test system: HCC 2998
SK-MEL-2 = test system: SK-MEL-2
786-0 = test system: 786-0
ACHN = test system: ACHN
Malme-3M = test system: Malme-3M
HOP-92 = test system: HOP-92
RXF 393 = test system: RXF 393
NCI-H460 = test system: NCI-H460
NCI-H226 = test system: NCI-H226
OVCAR-4 = test system: OVCAR-4

O=C1/C(=C/c2ccncc2)C(n2cccc2)c2c(Br)sc(Br)c21 (centres undefined)
GI50 (SK-OV-3): 7.78 µM (inactive) | GI50 (T47D): 3.73 µM (inactive) | GI50 (HCT-116): 2.79 µM (inactive) | GI50 (MDA-MB-231): 2.25 µM (inactive) | GI50 (OVCAR-5): 14.3 µM (inactive) | GI50 (EKVX): 3.1 µM (inactive) | GI50 (SNB-75): 3.53 µM (inactive) | GI50 (LOX IMVI): 1.93 µM (inactive) | GI50 (RPMI-8226): 2.02 µM (inactive) | GI50 (OVCAR-3): 1.87 µM (inactive) | GI50 (SF-295): 13.3 µM (inactive) | GI50 (KM12): 11.3 µM (inactive) | GI50 (MDA-MB-435): 2.11 µM (inactive) | GI50 (SR): 2.58 µM (inactive) | GI50 (IGROV-1): 1.96 µM (inactive) | GI50 (CCRF-CEM): 0.671 µM (active) | GI50 (MCF7): 3.85 µM (inactive) | GI50 (SF-539): 3.87 µM (inactive) | GI50 (Hs-578T): 2.77 µM (inactive) | GI50 (UACC-62): 2.94 µM (inactive) | GI50 (A549): 14.9 µM (inactive) | GI50 (COLO 205): 10.4 µM (inactive) | GI50 (NCI/ADR-RES): 14.3 µM (inactive) | GI50 (OVCAR-8): 2.28 µM (inactive) | GI50 (HCT-15): 2.85 µM | GI50 (CAKI-1): 3.26 µM (inactive) | GI50 (BT-549): 3.07 µM (inactive) | GI50 (UO-31): 2.29 µM (inactive) | GI50 (MDA-N): 2.52 µM (inactive) | GI50 (SK-MEL-5): 13.7 µM (inactive) | GI50 (SNB-19): 15.5 µM (inactive) | GI50 (HOP-62): 3.03 µM (inactive) | GI50 (DU-145): 3.56 µM (inactive) | GI50 (NCI-H23): 2.56 µM (inactive) | GI50 (PC-3): 4.41 µM (inactive) | GI50 (NCI-H522): 11.7 µM (inactive) | GI50 (K562): 1.82 µM (inactive) | GI50 (SF-268): 2.99 µM (inactive) | GI50 (U-251): 2.11 µM (inactive) | GI50 (SW-620): 1.57 µM (inactive) | GI50 (M14): 0.263 µM (active) | GI50 (A498): 22.7 µM (inactive) | GI50 (SN12C): 4.39 µM (inactive) | GI50 (SK-MEL-28): 2.65 µM (inactive) | GI50 (TK-10): 4.2 µM (inactive) | GI50 (MOLT-4): 1.4 µM (inactive) | GI50 (HT-29): 4.82 µM (inactive) | GI50 (HL-60): 1.53 µM (inactive) | GI50 (UACC-257): 2.1 µM (inactive) | GI50 (HCC 2998): 1.88 µM (inactive) | GI50 (SK-MEL-2): 2.46 µM (inactive) | GI50 (786-0): 3.41 µM (inactive) | GI50 (ACHN): 4.95 µM (inactive) | GI50 (Malme-3M): 3.02 µM (inactive) | GI50 (HOP-92): 2.86 µM (inactive) | GI50 (RXF 393): 1.88 µM (inactive) | GI50 (NCI-H460): 4.39 µM (inactive)

CCN(CC)CCOc1ccc(N2C(=O)c3cc(OC)c(OC)cc3C2=O)cc1
GI50 (SK-OV-3): > 100 µM (inactive) | GI50 (T47D): > 100 µM (inactive) | GI50 (HCT-116): > 100 µM (inactive) | GI50 (NCI-H226): > 100 µM (inactive) | GI50 (OVCAR-4): > 100 µM (inactive) | GI50 (MDA-MB-231): > 100 µM (inactive) | GI50 (OVCAR-5): > 100 µM (inactive) | GI50 (EKVX): > 100 µM (inactive) | GI50 (LOX IMVI): > 100 µM (inactive) | GI50 (RPMI-8226): > 100 µM (inactive) | GI50 (OVCAR-3): > 100 µM (inactive) | GI50 (SF-295): > 100 µM (inactive) | GI50 (KM12): > 100 µM (inactive) | GI50 (MDA-MB-435): > 100 µM (inactive) | GI50 (SR): > 100 µM (inactive) | GI50 (IGROV-1): > 100 µM (inactive) | GI50 (CCRF-CEM): > 100 µM (inactive) | GI50 (MCF7): > 100 µM (inactive) | GI50 (SF-539): > 100 µM (inactive) | GI50 (Hs-578T): > 100 µM (inactive) | GI50 (UACC-62): > 100 µM (inactive) | GI50 (A549): > 100 µM (inactive) | GI50 (COLO 205): > 100 µM (inactive) | GI50 (NCI/ADR-RES): > 100 µM (inactive) | GI50 (OVCAR-8): > 100 µM (inactive) | GI50 (HCT-15): > 100 µM | GI50 (CAKI-1): > 100 µM (inactive) | GI50 (BT-549): > 100 µM (inactive) | GI50 (MDA-N): > 100 µM (inactive) | GI50 (SK-MEL-5): > 100 µM (inactive) | GI50 (SNB-19): > 100 µM (inactive) | GI50 (HOP-62): > 100 µM (inactive) | GI50 (DU-145): > 100 µM (inactive) | GI50 (NCI-H23): > 100 µM (inactive) | GI50 (PC-3): > 100 µM (inactive) | GI50 (NCI-H522): > 100 µM (inactive) | GI50 (K562): > 100 µM (inactive) | GI50 (SF-268): > 100 µM (inactive) | GI50 (U-251): > 100 µM (inactive) | GI50 (SW-620): > 100 µM (inactive) | GI50 (M14): > 100 µM (inactive) | GI50 (A498): > 100 µM (inactive) | GI50 (SN12C): > 100 µM (inactive) | GI50 (SK-MEL-28): > 100 µM (inactive) | GI50 (TK-10): > 100 µM (inactive) | GI50 (MOLT-4): > 100 µM (inactive) | GI50 (HT-29): > 100 µM (inactive) | GI50 (HL-60): > 100 µM (inactive) | GI50 (UACC-257): > 100 µM (inactive) | GI50 (HCC 2998): > 100 µM (inactive) | GI50 (SK-MEL-2): > 100 µM (inactive) | GI50 (786-0): > 100 µM (inactive) | GI50 (ACHN): > 100 µM (inactive) | GI50 (Malme-3M): > 100 µM (inactive) | GI50 (HOP-92): > 100 µM (inactive) | GI50 (RXF 393): > 100 µM (inactive) | GI50 (NCI-H460): > 100 µM (inactive)
